Measurements published in ChEMBL document CHEMBL1138495, “Inhibition of subgenomic hepatitis C virus RNA replication by acridone derivatives: identification of an NS3 helicase inhibitor” (J Med Chem, 2009).
Converted amounts (≈) assume the structure as drawn. The source made the active and inactive calls. The rule behind the calls is not given here.

tested on: Hepatitis C virus; experiment: Antiviral activity against HCV infected in human HuH5.2 assessed as inhibition of viral RNA synthesis after 4 days by Steady-Glo-luciferase assay; format: functional, organism-based, Hepacivirus hominis; settings: Huh-5-2, 96 h

| EC50 | SMILES |
| --- | --- |
| 3.7 µg/mL (≈ 9.15 µM) | COc1ccc(C(=O)c2ccc(N3CCN(c4ccccn4)CC3)c(N)c2)c(O)c1 |
| 2.3 µg/mL (≈ 5.34 µM) | COc1cc(OC)c2c(=O)c3ccc(N4CCN(c5ccccn5)CC4)cc3n(C)c2c1 |
| 9 µg/mL (≈ 28.6 µM) | COc1cc(OC)c2c(=O)c3cc(N)c(OC)cc3n(C)c2c1 |
| > 50 µg/mL | COc1cc(OC)c2c(=O)c3cc(N)c(Cl)cc3n(CCC(C)C)c2c1 |
| 19 µg/mL (≈ 68.7 µM) | Nc1cc2c(=O)c3c(O)cc(O)cc3[nH]c2cc1Cl |
| 27 µg/mL (≈ 55.6 µM) | COc1cc(OC)c2c(=O)c3cc(N)c(N4CCN(c5nc6ccccc6o5)CC4)cc3n(C)c2c1 |
| > 50 µg/mL | COc1cc(OC)c2c(=O)c3cc(N)c(N4CCN(c5ccc(C(F)(F)F)cn5)CC4)cc3n(C)c2c1 |

Continued, compound first:

| SMILES | EC50 |
| --- | --- |
| COc1cc(OCC(C)C)c2c(=O)c3cc(N)c(N4CCN(c5ccccn5)CC4)cc3n(C)c2c1 | 3.8 µg/mL (≈ 7.79 µM) |
| COc1cc(OC)c2c(=O)c3cc(N)c(N4CCN(c5ccncc5)CC4)cc3n(C)c2c1 | 5.5 µg/mL (≈ 12.3 µM) |
| COc1cc(OC)cc(N(C)c2ccc(N)c(N3CCN(c4ccccn4)CC3)c2)c1 | 4.1 µg/mL (≈ 9.77 µM) |
| COc1ccc2c(=O)c3cc(N)c(N4CCN(c5ccccn5)CC4)cc3n(C)c2c1 | 0.8 µg/mL (≈ 1.93 µM) |
| Cn1ccc(=O)c2cc(N)c(N3CCN(c4ccccn4)CC3)cc21 | 11 µg/mL (≈ 32.8 µM) |

tested on: Hepacivirus hominis; experiment: Inhibition of HCV recombinant NS5B RNA polymerase expressed in Escherichia coli up to 100 uM by liquid scintillation counter; settings: not given

| Activity | SMILES |
| --- | --- |
| inactive | COc1ccc(C(=O)c2ccc(N3CCN(c4ccccn4)CC3)c(N)c2)c(O)c1 |
| inactive | COc1cc(OC)c2c(=O)c3ccc(N4CCN(c5ccccn5)CC4)cc3n(C)c2c1 |
| inactive | COc1cc(OC)c2c(=O)c3cc(N)c(OC)cc3n(C)c2c1 |
| inactive | COc1cc(OC)c2c(=O)c3cc(N)c(Cl)cc3n(CCC(C)C)c2c1 |
| inactive | Nc1cc2c(=O)c3c(O)cc(O)cc3[nH]c2cc1Cl |
| inactive | COc1cc(OC)c2c(=O)c3cc(N)c(N4CCN(c5nc6ccccc6o5)CC4)cc3n(C)c2c1 |
| inactive | COc1cc(OC)c2c(=O)c3cc(N)c(N4CCN(c5ccc(C(F)(F)F)cn5)CC4)cc3n(C)c2c1 |

More lines, now with the values behind:

| SMILES | Activity |
| --- | --- |
| COc1cc(OCC(C)C)c2c(=O)c3cc(N)c(N4CCN(c5ccccn5)CC4)cc3n(C)c2c1 | inactive |
| COc1cc(OC)c2c(=O)c3cc(N)c(N4CCN(c5ccncc5)CC4)cc3n(C)c2c1 | inactive |
| COc1cc(OC)cc(N(C)c2ccc(N)c(N3CCN(c4ccccn4)CC3)c2)c1 | inactive |
| COc1ccc2c(=O)c3cc(N)c(N4CCN(c5ccccn5)CC4)cc3n(C)c2c1 | inactive |
| Cn1ccc(=O)c2cc(N)c(N3CCN(c4ccccn4)CC3)cc21 | inactive |

tested on: Vero; experiment: Cytostatic activity against african green monkey Vero cells; format: ADME, cell-based; settings: chlorocebus sabaeus

| SMILES | Activity |
| --- | --- |
| COc1cc(OCC(C)C)c2c(=O)c3cc(N)c(N4CCN(c5ccccn5)CC4)cc3n(C)c2c1 | Toxic |
| COc1cc(OC)c2c(=O)c3ccc(N4CCN(c5ccccn5)CC4)cc3n(C)c2c1 | Toxic |
| COc1cc(OC)c2c(=O)c3cc(N)c(N4CCN(c5ccncc5)CC4)cc3n(C)c2c1 | Toxic |

tested on: not listed separately; experiment: Cytostatic activity against human HuH5.2 after 3 days by MTS/PMS assay; format: ADME, Huh-5-2; settings: HuH5.2 cells

| SMILES | CC50 at 72 h |
| --- | --- |
| COc1cc(OCC(C)C)c2c(=O)c3cc(N)c(N4CCN(c5ccccn5)CC4)cc3n(C)c2c1 | 27 µg/mL (≈ 55.4 µM) |
| COc1ccc(C(=O)c2ccc(N3CCN(c4ccccn4)CC3)c(N)c2)c(O)c1 | > 50 µg/mL |
| COc1cc(OC)c2c(=O)c3ccc(N4CCN(c5ccccn5)CC4)cc3n(C)c2c1 | > 50 µg/mL |
| COc1cc(OC)c2c(=O)c3cc(N)c(OC)cc3n(C)c2c1 | > 50 µg/mL |
| COc1cc(OC)c2c(=O)c3cc(N)c(Cl)cc3n(CCC(C)C)c2c1 | > 50 µg/mL |
| Nc1cc2c(=O)c3c(O)cc(O)cc3[nH]c2cc1Cl | 25 µg/mL (≈ 90.4 µM) |
| COc1cc(OC)c2c(=O)c3cc(N)c(N4CCN(c5nc6ccccc6o5)CC4)cc3n(C)c2c1 | > 50 µg/mL |
| COc1cc(OC)c2c(=O)c3cc(N)c(N4CCN(c5ccncc5)CC4)cc3n(C)c2c1 | > 50 µg/mL |
| COc1cc(OC)cc(N(C)c2ccc(N)c(N3CCN(c4ccccn4)CC3)c2)c1 | 7.2 µg/mL (≈ 17.2 µM) |
| COc1ccc2c(=O)c3cc(N)c(N4CCN(c5ccccn5)CC4)cc3n(C)c2c1 | 11 µg/mL (≈ 26.5 µM) |
| Cn1ccc(=O)c2cc(N)c(N3CCN(c4ccccn4)CC3)cc21 | > 33 µg/mL |
| COc1cc(OC)c2c(=O)c3cc(N)c(N4CCN(c5ccc(C(F)(F)F)cn5)CC4)cc3n(C)c2c1 | > 50 µg/mL |

tested on: not listed separately; experiment: Inhibition of ATPase activity of HCV […] expressed in Escherichia coli; set-up: species or system Hepacivirus hominis; settings: not given

| IC50 | SMILES |
| --- | --- |
| > 1000 µM | COc1ccc(C(=O)c2ccc(N3CCN(c4ccccn4)CC3)c(N)c2)c(O)c1 |
| > 1000 µM | COc1cc(OC)c2c(=O)c3ccc(N4CCN(c5ccccn5)CC4)cc3n(C)c2c1 |
| > 1000 µM | COc1cc(OC)c2c(=O)c3cc(N)c(OC)cc3n(C)c2c1 |
| > 1000 µM | COc1cc(OC)c2c(=O)c3cc(N)c(Cl)cc3n(CCC(C)C)c2c1 |
| > 1000 µM | Nc1cc2c(=O)c3c(O)cc(O)cc3[nH]c2cc1Cl |
| > 1000 µM | COc1cc(OC)c2c(=O)c3cc(N)c(N4CCN(c5nc6ccccc6o5)CC4)cc3n(C)c2c1 |
| > 1000 µM | COc1cc(OC)c2c(=O)c3cc(N)c(N4CCN(c5ccc(C(F)(F)F)cn5)CC4)cc3n(C)c2c1 |

More lines, now with the values behind:

| SMILES | IC50 |
| --- | --- |
| COc1cc(OCC(C)C)c2c(=O)c3cc(N)c(N4CCN(c5ccccn5)CC4)cc3n(C)c2c1 | > 1000 µM |
| COc1cc(OC)c2c(=O)c3cc(N)c(N4CCN(c5ccncc5)CC4)cc3n(C)c2c1 | > 1000 µM |
| COc1cc(OC)cc(N(C)c2ccc(N)c(N3CCN(c4ccccn4)CC3)c2)c1 | > 1000 µM |
| COc1ccc2c(=O)c3cc(N)c(N4CCN(c5ccccn5)CC4)cc3n(C)c2c1 | > 1000 µM |
| Cn1ccc(=O)c2cc(N)c(N3CCN(c4ccccn4)CC3)cc21 | > 1000 µM |

tested on: Vero; experiment: Cytostatic activity against african green monkey Vero cells in presence of guanosine; format: ADME, cell-based; settings: chlorocebus sabaeus

| SMILES | Activity |
| --- | --- |
| COc1cc(OCC(C)C)c2c(=O)c3cc(N)c(N4CCN(c5ccccn5)CC4)cc3n(C)c2c1 | Non-toxic |
| COc1cc(OC)c2c(=O)c3ccc(N4CCN(c5ccccn5)CC4)cc3n(C)c2c1 | Non-toxic |
| COc1cc(OC)c2c(=O)c3cc(N)c(N4CCN(c5ccncc5)CC4)cc3n(C)c2c1 | Non-toxic |
